# Laboratory results from US7928102B2, “Irradiated compositions and treatment of cancers with radiation in combination with taurolidine and/or taurultam” (Ed. Geistlich Soehne AG fuer Chemische Industrie, priority 2006, dated 2011).
# Like-named read-outs stand apart in the source and are kept apart here.
# Columns and labels:
# COS-7 Fibroblasts [1] = assay: Acute toxicity: cell adhesion evaluated microscopically; settings: for Adhesion of COS-7 Fibroblasts: then 20 h, % of control cultures
# Procedure: (§2) For this, two different categories of cells (muscle cells and fibroblasts) were incubated with three different concentrations of the two test substances for different periods of time. A possible toxic effect of the test substances on the cells was analyzed 20 hours later. The measures to determine possible cell damage were viability and level of cell adhesion.
# (§3) The COS-7 and C2C12 cell lines were plated at 50% confluence on 48 well dishes, and incubated for 24 hours at 37°. Then the media were changed. To this, either unmodified medium (control), or medium containing 0.1%, 0.25% or 0.5% taurultam or dehydrotaurultam was used. The cell cultures were incubated at 37° for 5, 10, 20, 60 and 120 minutes, and then washed three times with fresh medium. After a further 20 hours in the incubator at 37°, the cells were evaluated.
# (§4) As a measure of viability, the extent of cell adhesion was evaluated microscopically.
# (§5) Cell adhesion was analyzed after 20 hours of incubation with taurultam and dehydrotaurultam respectively.
# (§6) Fibroblasts were incubated with taurultam or dehydrotaurultam (0.1%, 0.25%, 0.5%) for 5, 10, 20, 60 and 120 minutes at 37°. After rinsing them three times with a regular medium, the cultures were incubated for another 20 h. Then the extent of adhesion of the cells was examined microscopically.
# [2] = test system: C2C12 Muscle Myoblast Cells; assay: as above; settings: for Adhesion of C2C12 Muscle Myoblast Cells: then 20 h, % of control cultures
# Procedure: (§7) In the present report, the acute toxicity of dehydrotaurultam was evaluated compared to taurultam. For this, two different categories of cells (muscle cells and fibroblasts) were incubated with three different concentrations of the two test substances for different periods of time. A possible toxic effect of the test substances on the cells was analyzed 20 hours later. The measures to determine possible cell damage were viability and level of cell adhesion.
# as §3, §4, §5
# (§8) Muscle cells were incubated with taurultam or dehydrotaurultam (0.1%, 0.25%, 0.5%) for 5, 10, 20, 60 and 120 minutes at 37°. After rinsing them three times with a regular medium, the cultures were incubated for another 20 h. Then the extent of cells adhesion was examined microscopically.
# B16 4A5 cells = assay: Melanoma tumour growth in vivo, B16 4A5 cells injected into right flank; parameters: species or system C57BL/6 mice
# Procedure: C57BL/6 mice (8-10 week old) (n=120) were injected with B16 4A5 cells (5×10^5 per mouse) into the right flank and divided into control, PVP (solvent for taurolidine), taurolidine (5 mg/mouse, i.p), radiation (5 Gy/mouse), and taurolidine plus radiation. Tumour growth rate, tumour/body weight ratio, lung metastases, and survival rate were recorded. Intra-tumour cell mitosis/apoptosis index, microvessel desity, and splenic cytotoxic T-lymphocyte (CTL) and nature killer (NK) cell-mediated cytotoxic activity were also accessed.
# [3] = test system: Murine melanoma B16 F10 cells; assay: Cell cycle by FACScan analysis; type: cell-based
# Procedure: (§1) Murine melanoma B16 4A5 and B16 F10 cells were treated with taurolidine (0-200 μg/ml), X-ray (Roentgen) radiation (0-4 Gy), or their combination for different time points. Cell cycle was assessed by FACScan analysis. Cell apoptosis and necrosis were determined by FACScan analysis and MTT assay, and further confirmed by DNA gel electrophoresis.
# [4] = test system: Murine melanoma B16 4A5 cells; assay: Cell cycle by FACScan analysis; type: cell-based
# Procedure: as §1
# [5] = test system: Murine melanoma B16 F10 cells; assay: Cell apoptosis and necrosis by FACScan analysis, MTT assay, DNA gel electrophoresis; type: cell-based; settings: taurolidine 10-200 μg/ml
# Procedure: as §1
# [6] = test system: Murine melanoma B16 4A5 cells; assay: as above; type: cell-based
# Procedure: as §1
# [7] = Gamma irradiation of aqueous 1% taurolidine solution, radiolysis products; type: physicochemical; settings: approx. 25 gKy, aqueous 1% solution in 500 ml glass bottles; for content after γ-irradiation of a 1% taurolidine solution: IR, HPLC/MS, amino acid analysis
# Procedure: Examination of an aqueous 1% taurolidine solution for radiolysis products. After γ-irradiation (approx. 25 gKy) of a 1% taurolidine solution contained in 500 ml glass bottles the following products can be isolated, or quantitatively determined by means of IR spectroscopy, HPLC/MS analysis, amino acid analysis: […]
# [8] = Evaluation of crystalline taurolidine powder after sterilisation by gamma-radiation; type: physicochemical
# Procedure: Two batches of normal crystalline taurolidine powder were produced and sterilised by gamma-radiation. The taurolidine crystals 0.5 g were weighed into 5 ml vials under sterile conditions and laminar flow. The vials were closed by rubber stoppers and seal caps. The closed vials were then radiated with gamma rays of 25 kGy (Range certification 26-30 kGy) and subsequently analysed.
# COS-7 Fibroblasts [9] = test system: COS-7 Fibroblasts
# Procedure: as §2, §3, §4, §5, §6
# [10] = test system: C2C12 Muscle Myoblast Cells; settings: mouse
# Procedure: as §7, §3, §4, §5, §8
# [11] = taurolidine 5 mg/mouse i.p. plus radiation 5 Gy/mouse
# [12] = taurolidine 5 mg/mouse i.p. plus radiation 5 Gy/mouse vs taurolidine alone (p<0.01) or radiation alone (p<0.01)
# [13] = taurolidine alone, 0-200 μg/ml, different time points
# [14] = taurolidine in combination with X-ray radiation (0-4 Gy)
smiles,measurement,setting,value
O=S1(=O)CCNCN1 [taurultam],Adhesion of COS-7 Fibroblasts,"COS-7 Fibroblasts [1]; 0.1%, incubation 5 min",100%
same,Adhesion of COS-7 Fibroblasts,"COS-7 Fibroblasts [1]; 0.1%, incubation 10 min",100%
same,Adhesion of COS-7 Fibroblasts,"COS-7 Fibroblasts [1]; 0.1%, incubation 20 min",90%
same,Adhesion of COS-7 Fibroblasts,"COS-7 Fibroblasts [1]; 0.1%, incubation 60 min",80%
same,Adhesion of COS-7 Fibroblasts,"COS-7 Fibroblasts [1]; 0.1%, incubation 120 min",70%
same,"cell adhesion, fibroblasts","COS-7 Fibroblasts [1]; 0.1%, more extended incubation periods (60 and 120 minutes)",limited adhesion was observed
same,Adhesion of COS-7 Fibroblasts,"COS-7 Fibroblasts [1]; 0.25%, incubation 5 min",95%
same,Adhesion of COS-7 Fibroblasts,"COS-7 Fibroblasts [1]; 0.25%, incubation 10 min",90%
same,Adhesion of COS-7 Fibroblasts,"COS-7 Fibroblasts [1]; 0.25%, incubation 20 min",60%
same,Adhesion of COS-7 Fibroblasts,"COS-7 Fibroblasts [1]; 0.25%, incubation 60 min",60%
same,Adhesion of COS-7 Fibroblasts,"COS-7 Fibroblasts [1]; 0.25%, incubation 120 min",70%
same,"cell adhesion, fibroblasts","COS-7 Fibroblasts [1]; 0.25%, incubation period of at least 20 minutes",60%
same,Adhesion of COS-7 Fibroblasts,"COS-7 Fibroblasts [1]; 0.5%, incubation 5 min",95%
same,Adhesion of COS-7 Fibroblasts,"COS-7 Fibroblasts [1]; 0.5%, incubation 10 min",90%
same,Adhesion of COS-7 Fibroblasts,"COS-7 Fibroblasts [1]; 0.5%, incubation 20 min",70%
same,Adhesion of COS-7 Fibroblasts,"COS-7 Fibroblasts [1]; 0.5%, incubation 60 min",60%
same,Adhesion of COS-7 Fibroblasts,"COS-7 Fibroblasts [1]; 0.5%, incubation 120 min",40%
same,"cell adhesion, fibroblasts","COS-7 Fibroblasts [1]; 0.5%, more extended incubation periods (beyond 10 minutes)",≥ 40%
same,"cell adhesion, fibroblasts","COS-7 Fibroblasts [1]; most extreme conditions (0.5%, 1-2 h)",40-60%
same,Adhesion of C2C12 Muscle Myoblast Cells,"[2]; 0.1%, incubation 5 min",100%
same,Adhesion of C2C12 Muscle Myoblast Cells,"[2]; 0.1%, incubation 5 min, listed as Taurultam",100%
same,Adhesion of C2C12 Muscle Myoblast Cells,"[2]; 0.1%, incubation 10 min",100%
same,Adhesion of C2C12 Muscle Myoblast Cells,"[2]; 0.1%, incubation 10 min, listed as Taurultam",100%
same,Adhesion of C2C12 Muscle Myoblast Cells,"[2]; 0.1%, incubation 20 min",100%
same,Adhesion of C2C12 Muscle Myoblast Cells,"[2]; 0.1%, incubation 20 min, listed as Taurultam",100%
same,Adhesion of C2C12 Muscle Myoblast Cells,"[2]; 0.1%, incubation 60 min",90%
same,Adhesion of C2C12 Muscle Myoblast Cells,"[2]; 0.1%, incubation 120 min",60%
same,Adhesion of C2C12 Muscle Myoblast Cells,"[2]; 0.1%, incubation 120 min, listed as Taurultam",60%
same,Adhesion of C2C12 Muscle Myoblast Cells,"[2]; 0.25%, incubation 5 min",100%
same,Adhesion of C2C12 Muscle Myoblast Cells,"[2]; 0.25%, incubation 10 min",95%
same,Adhesion of C2C12 Muscle Myoblast Cells,"[2]; 0.25%, incubation 20 min",90%
same,Adhesion of C2C12 Muscle Myoblast Cells,"[2]; 0.25%, incubation 60 min",70%
same,Adhesion of C2C12 Muscle Myoblast Cells,"[2]; 0.25%, incubation 120 min",60%
same,"cell adhesion, muscle cells","[2]; 0.25%, incubation periods of 60 and 120 minutes",60-70%
same,Adhesion of C2C12 Muscle Myoblast Cells,"[2]; 0.5%, incubation 5 min",95%
same,Adhesion of C2C12 Muscle Myoblast Cells,"[2]; 0.5%, incubation 10 min",90%
same,Adhesion of C2C12 Muscle Myoblast Cells,"[2]; 0.5%, incubation 20 min",90%
same,Adhesion of C2C12 Muscle Myoblast Cells,"[2]; 0.5%, incubation 60 min",60%
same,Adhesion of C2C12 Muscle Myoblast Cells,"[2]; 0.5%, incubation 120 min",50%
same,"cell adhesion, muscle cells","[2]; 0.5%, incubation periods of 60-120 minutes",50-60%
same,"cell adhesion, muscle cells","[2]; all concentrations (0.1-0.5%), 2-hour incubation period",50-60%
O=S1(=O)CCN(CN2CCS(=O)(=O)NC2)CN1 [taurolidine],nature killer (NK) cell cytotoxic activity,B16 4A5 cells; [11],enhanced
same,splenic cytotoxic T-lymphocyte (CTL) cytotoxic activity,B16 4A5 cells; [11],enhanced
same,survival,B16 4A5 cells; [11],improved survival
same,lung metastatic nodules,B16 4A5 cells; [12],greater reduction
same,tumour growth rate,B16 4A5 cells; [12],greater reduction
same,tumour/body weight ratio,B16 4A5 cells; [12],greater reduction
same,primary and metastatic melanoma tumour growth,"B16 4A5 cells; taurolidine 5 mg/mouse i.p. plus radiation 5 Gy/mouse, compared to untreated animals (p<0.001)",significantly attenuated
same,intra-tumour cell mitosis/apoptosis index,B16 4A5 cells; taurolidine plus radiation group,significant decreased
same,cell cycle,[3]; [13],cell cycle at G0/G1 phase with an enhanced sub-G1 population in a dose- and time-dependent manner
same,cell cycle,[3]; [14],cell cycle arrest at G2/M phase with absence of sub-G1 population
same,cell cycle,[4]; [13],cell cycle at G0/G1 phase with an enhanced sub-G1 population in a dose- and time-dependent manner
same,cell cycle,[4]; [14],cell cycle arrest at G2/M phase with absence of sub-G1 population
same,cell apoptosis,[5],dose- and time-dependent cell apoptosis
same,apoptosis,[6]; 25 μg/ml taurolidine alone,failed to induce apoptosis
same,apoptosis,[6]; 25 μg/ml taurolidine in combination with 0.5 Gy radiation,70%
same,cell apoptosis,[6]; taurolidine 10-200 μg/ml,dose- and time-dependent cell apoptosis
same,amount after γ-irradiation of a 1% taurolidine solution,[7],"3,900 mg"
same,content after γ-irradiation of a 1% taurolidine solution,[7],0.78%
same,Solubility,[8],1%
same,evaluation of stability after sterilization by gamma radiation,[8],identical with non-radiated crystals
same,Endotoxins,[8]; crystalline powder after gamma rays of 25 kGy,negative
NCCS(=O)(=O)O [taurine],amount after γ-irradiation of a 1% taurolidine solution,[7],53 mg
same,content after γ-irradiation of a 1% taurolidine solution,[7],0.0106%
O=S1(=O)CCN=CN1 [dehydrotaurultam],"cell adhesion, fibroblasts",COS-7 Fibroblasts [9],not detected
same,"cell adhesion, fibroblasts","COS-7 Fibroblasts [9]; African green monkey, 0.25 %",80%
same,Adhesion of COS-7 Fibroblasts,"COS-7 Fibroblasts [9]; African green monkey, 5 min, 0.1 %",100%
same,Adhesion of COS-7 Fibroblasts,"COS-7 Fibroblasts [9]; African green monkey, 5 min, 0.25 %",100%
same,Adhesion of COS-7 Fibroblasts,"COS-7 Fibroblasts [9]; African green monkey, 5 min, 0.5 %",100%
same,Adhesion of COS-7 Fibroblasts,"COS-7 Fibroblasts [9]; African green monkey, 10 min, 0.1 %",100%
same,Adhesion of COS-7 Fibroblasts,"COS-7 Fibroblasts [9]; African green monkey, 10 min, 0.25 %",100%
same,Adhesion of COS-7 Fibroblasts,"COS-7 Fibroblasts [9]; African green monkey, 10 min, 0.5 %",95%
same,Adhesion of COS-7 Fibroblasts,"COS-7 Fibroblasts [9]; African green monkey, 20 min, 0.1 %",100%
same,Adhesion of COS-7 Fibroblasts,"COS-7 Fibroblasts [9]; African green monkey, 20 min, 0.25 %",90%
same,Adhesion of COS-7 Fibroblasts,"COS-7 Fibroblasts [9]; African green monkey, 20 min, 0.5 %",90%
same,Adhesion of COS-7 Fibroblasts,"COS-7 Fibroblasts [9]; African green monkey, 60 min, 0.1 %",100%
same,Adhesion of COS-7 Fibroblasts,"COS-7 Fibroblasts [9]; African green monkey, 60 min, 0.25 %",90%
same,Adhesion of COS-7 Fibroblasts,"COS-7 Fibroblasts [9]; African green monkey, 60 min, 0.5 %",80%
same,Adhesion of COS-7 Fibroblasts,"COS-7 Fibroblasts [9]; African green monkey, 120 min, 0.1 %",90%
same,Adhesion of COS-7 Fibroblasts,"COS-7 Fibroblasts [9]; African green monkey, 120 min, 0.25 %",80%
same,Adhesion of COS-7 Fibroblasts,"COS-7 Fibroblasts [9]; African green monkey, 120 min, 0.5 %",80%
same,amount after γ-irradiation of a 1% taurolidine solution,[7],780 mg
same,content after γ-irradiation of a 1% taurolidine solution,[7],0.156%
same,"cell adhesion, muscle cells",[10]; 0.25 %,80%
same,"cell adhesion, muscle cells",[10]; 0.5 %,80-90%
same,Adhesion of C2C12 Muscle Myoblast Cells,"[10]; 5 min, 0.1 %",100%
same,Adhesion of C2C12 Muscle Myoblast Cells,"[10]; 5 min, 0.25 %",100%
same,Adhesion of C2C12 Muscle Myoblast Cells,"[10]; 5 min, 0.5 %",100%
same,Adhesion of C2C12 Muscle Myoblast Cells,"[10]; 10 min, 0.1 %",100%
same,Adhesion of C2C12 Muscle Myoblast Cells,"[10]; 10 min, 0.25 %",100%
same,Adhesion of C2C12 Muscle Myoblast Cells,"[10]; 10 min, 0.5 %",100%
same,Adhesion of C2C12 Muscle Myoblast Cells,"[10]; 20 min, 0.1 %",100%
same,Adhesion of C2C12 Muscle Myoblast Cells,"[10]; 20 min, 0.25 %",90%
same,Adhesion of C2C12 Muscle Myoblast Cells,"[10]; 20 min, 0.5 %",90%
same,Adhesion of C2C12 Muscle Myoblast Cells,"[10]; 60 min, 0.1 %",100%
same,Adhesion of C2C12 Muscle Myoblast Cells,"[10]; 60 min, 0.25 %",80%
same,Adhesion of C2C12 Muscle Myoblast Cells,"[10]; 60 min, 0.5 %",90%
same,"cell adhesion, muscle cells",[10]; 2 h,80-90%
same,Adhesion of C2C12 Muscle Myoblast Cells,"[10]; 120 min, 0.1 %",90%
same,Adhesion of C2C12 Muscle Myoblast Cells,"[10]; 120 min, 0.25 %",80%
same,Adhesion of C2C12 Muscle Myoblast Cells,"[10]; 120 min, 0.5 %",80%
NCCS(N)(=O)=O [taurinamide],amount after γ-irradiation of a 1% taurolidine solution,[7],85.5 mg
same,content after γ-irradiation of a 1% taurolidine solution,[7],0.0171%
O=C=O [CO2],amount after γ-irradiation of a 1% taurolidine solution,[7],9.7 mg
same,content after γ-irradiation of a 1% taurolidine solution,[7],0.0019%
OCO [methylene glycol],amount after γ-irradiation of a 1% taurolidine solution,[7],81 mg
same,content after γ-irradiation of a 1% taurolidine solution,[7],0.0160%
